Measured values published in patent US20220213092A1, “BICYCLIC PYRAZOLE BRUTON'S TYROSINE KINASE INHIBITORS” (AbbVie Inc., priority 2020, published 2022).

Tests used:
[1] = target: T1, Full length BTK enzyme (human BTK residues 2-659) (Homo sapiens, UniProt Q06187); experiment: BTK MSA with full length BTK enzyme, used for Examples 50, 51, 62 and 63; assay type: biochemical; conditions: Examples 50, 51, 62 and 63: 1 mM ATP, 0.6 nM full length BTK enzyme, 3 hours at room temperature
T1 construct: 6His (N); Flag (N); TEV cleavage site (N); Serine (single linker residue before BTK residue 2) (N); made in house; host or cells: baculovirus (pFastBac vector)
Method: Kinase activities for Examples 50, 51, 62 and 63 were measured in vitro using the following electrophoretic mobility shift assay (MSA). The kinase reactions were assembled in a total volume of 20 μL in 384 well plates. To each well, 20 nL test compound, or control, in 100% dimethyl sulfoxide was spotted using Echo®, a liquid dispensing instrument (Labcyte, Indianapolis, Ind.). To each well was added: 12 μL of 1.67× Full length BTK enzyme in Master Buffer (Master Buffer components: 20 mM HEPES pH 7.4, 10 mM MgCl2, 1 mM DTT, 0.1 mM sodium orthovanadate, 10 mM beta-glycerophosphate, and 0.0075% w/v Triton x-100). Full length BTK enzyme was 6His-Flag-(TEV)-S[BTK(hu) (2-659)]*BEV, pFastBac*. [Note: this is a description of the exact amino acid sequence of the expressed BTK construct from N- to C-terminus: 6Histidines, Flag tag sequence, TEV cleavage site, Serine, human BTK residues 2-659; and BEV=expressed in baculovirus, pFastBac is the expression vector used].
Enzyme and compound/inhibitor were optionally pre-incubated. To each well was added: 8 μL of 2.5×ATP and substrate in 1× Master Buffer (1× Master Buffer as described above). The plate was incubated at room temperature for 3 hours. The reaction was terminated by adding 30 μL of 1.67× Stop Buffer (Stop Buffer components 10 mM EDTA in water), to each well. The final reaction mixture was as follows: 20 mM HEPES, pH 7.4; 0.0075% Triton X-100; 1 mM DTT; 10 mM MgCl2; 0.1 mM sodium orthovanadate; 10 mM beta-glycerophosphate; 0.1% dimethyl sulfoxide (from compound); 1 mM ATP; 1 μM (OG488-SEQ ID NO. 2-NH2) peptide substrate; and 0.6 nM BTK enzyme. […] The kinase activity for the kinases in Table 3 were measured at 3 hours incubation time, except that in the case of MAP2K1 and MAP2K2 assay, pre-activation of ERK was done for 30 min with 6 μM of ATP, and then the detection of activated ERK in the presence of compounds was done after 60 minutes of incubation.
The terminated reactions were analyzed using a 12 channel LABCHIP® 3000 microfluidic detection instrument (available from Caliper Life Sciences, Waltham, Mass.). […] As substrate and product peptides were separated, two peaks of fluorescence were observed. Change in the relative fluorescence intensity of the substrate and product peaks was the parameter measured, reflecting enzyme activity. […] Capillary electrophoregrams (RDA acquisition files) were analyzed using HTS Well Analyzer software (available from Caliper Life Sciences, Waltham, Mass.).
Activity in each sample was determined as the product to sum ratio (PSR): P/(S+P), where P was the peak height of the product peptide and S was the peak height of the substrate peptide. For each compound, enzyme activity was measured at various concentrations (12 concentrations of compound spaced by 3× dilution intervals). […]

[2] = tested on: CYP3A4; experiment: CYP3A4 induction assay (CYP 3A4 mRNA by qPCR in cryopreserved human hepatocytes); assay type: in vitro ADME; conditions: CYP3A4 mRNA fold change vs vehicle, 10 μM compound
Method: CYP induction was evaluated in vitro by determining the expression levels of CYP 3A4 mRNA using the qPCR (quantitative polymerase chain reaction) assay. On day one, cryopreserved human hepatocytes were thawed in prewarmed (37° C.) thawing medium (cryopreserved hepatocyte recovery medium, Gibco™ CM 7000; Thermo Fisher Scientific), centrifuged (1000 g for 10 minutes) and resuspended in plating medium (Gibco™ CM3000—Williams Medium E supplemented with hepatocytes plating supplement pak-serum containing; Thermo Fisher Scientific). Cells were counted by trypan blue exclusion using a hemocytometer and adjusted to a cell density of […]. Thereafter, […] of cell suspension was aliquoted per well in a 96-well plate, resulting in 60,000 cells/well. Plates were shaken in the north-south and east-west direction during plating. Plated cells were incubated at 37° C./5% CO2 in a humidified cell culture incubator for 4-6 hours. During this time, incubation medium (Gibco™ CM4000, cell maintenance supplement pack; Thermo Fisher Scientific) was mixed with Gibco™ Geltrex™ (Thermo Fischer Scientific) at the appropriate Geltrex™ protein concentration. Following recovery, medium was removed from cells and replaced with freshly prepared incubation medium. Cells were incubated overnight in a cell culture incubator (37° C./5% CO2).
The next day the incubation medium was prepared by combining the hepatocyte maintenance supplement pack with Williams medium E. The medium was warmed to 37° C. 1000× dimethyl sulfoxide compound stocks were prepared to the desired concentrations. 10 mM compound stocks in dimethyl sulfoxide were diluted (1 μL to 1 mL CM4000; final concentration=10 μM). Overlay medium was aspirated and […] dose solution added to the desired labeled 96 well plate. Cells were returned to the humidified incubator overnight (37° C./5% CO2).
On day 3, incubation medium was warmed to 37° C., and the same process for compound preparation repeated as in day 2, i.e. 1000× dimethyl sulfoxide compound stocks were prepared to the desired concentration, diluted (1:1000) in warm incubation medium, and this freshly prepared medium was used to replace treatment medium. Cells were returned to the humidified incubator (37° C./5% CO2) overnight.
On day 4, RNA isolation was performed. Prior to RNA isolation, cell viability was assessed using presto blue reagent. 10× dilution of PrestoBlue™ reagent (Thermo Fisher Scientific) was prepared by mixing 1.4 mL PrestoBlue™ with 12.6 mL incubation medium. Medium was aspirated from cells, and 100 μL of cell viability medium (10× dilution of PrestoBlue™ reagent) added and incubated for 17 minutes. Cell viability was determined by measuring absorbance using a microplate reader (Spark® 10M Tecan Life Sciences). After this measurement, media was aspirated using a multichannel aspirator and a glass pipet to completely aspirate from each well. Plates were stored or immediately used for mRNA isolation. All surfaces were cleaned using RNase away. 2× Lysis buffer was well mixed after incubation at ambient temperature. Fresh lysis buffer was prepared by mixing 0.125 μL of 0.5 mM DTT with 4.875 μL 2× lysis buffer. 1× lysis buffer containing DTT was then prepared by adding 5 μL dilution buffer to the 2× lysis buffer and mixing thoroughly. Thereafter, cell lysates were prepared by adding 1× lysis buffer to each sample well (96-well plate). Samples were incubated for 3-6 minutes at ambient temperature while shaking (350-400 rpm) to lyse the cells. Cells were scrapped with tips, and cell lysate (80 μL) was transferred to each well of the mRNA Catcher PLUS™ plate (Thermo Fisher Scientific). mRNA Catcher PLUS™ plate containing samples was covered with adhesive plastic film plate cover and incubated at ambient temperature for 45-60 minutes for RNA hybridization.
After hybridization, lysate was aspirated from the cells. […]

[3] = target: T2, BTK (Homo sapiens, UniProt Q06187); experiment: BTK kinase electrophoretic mobility shift assay (MSA); assay type: biochemical; conditions: 50 μM ATP, 0.5 nM BTK enzyme (Nanosyn-293HEK, WT), 3 hours at 25° C.; all examples except 50, 51, 62 and 63; read-out: BTK IC50
T2 construct: purchased Nanosyn, Santa Clara, Calif; host or cells: 293HEK

[4] = target: T3, Phosphorylation of Y223 of BTK (Homo sapiens, UniProt Q06187); experiment: Whole blood compound screening, phosphorylation of Y223 site of BTK (MSD assay); assay type: cell-based; conditions: healthy human whole blood, 2 hours at 37° C., 3 separate donors; read-out: WB BTK-pY223 EC50
T3 construct: host or cells: healthy human whole blood, 3 donors
How it was run: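 Heparinized human whole blood from 3 donors treated 2 h at 37 °C with compounds (8 points, top 10 μM, 1:4 dilution, 0.2% DMSO), then lysed. BTK pY223 quantified by MSD sandwich immunoassay (anti-BTK capture, anti-pY223 detection); EC50 from concentration response.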

T1 sequence (Q06187 2-659): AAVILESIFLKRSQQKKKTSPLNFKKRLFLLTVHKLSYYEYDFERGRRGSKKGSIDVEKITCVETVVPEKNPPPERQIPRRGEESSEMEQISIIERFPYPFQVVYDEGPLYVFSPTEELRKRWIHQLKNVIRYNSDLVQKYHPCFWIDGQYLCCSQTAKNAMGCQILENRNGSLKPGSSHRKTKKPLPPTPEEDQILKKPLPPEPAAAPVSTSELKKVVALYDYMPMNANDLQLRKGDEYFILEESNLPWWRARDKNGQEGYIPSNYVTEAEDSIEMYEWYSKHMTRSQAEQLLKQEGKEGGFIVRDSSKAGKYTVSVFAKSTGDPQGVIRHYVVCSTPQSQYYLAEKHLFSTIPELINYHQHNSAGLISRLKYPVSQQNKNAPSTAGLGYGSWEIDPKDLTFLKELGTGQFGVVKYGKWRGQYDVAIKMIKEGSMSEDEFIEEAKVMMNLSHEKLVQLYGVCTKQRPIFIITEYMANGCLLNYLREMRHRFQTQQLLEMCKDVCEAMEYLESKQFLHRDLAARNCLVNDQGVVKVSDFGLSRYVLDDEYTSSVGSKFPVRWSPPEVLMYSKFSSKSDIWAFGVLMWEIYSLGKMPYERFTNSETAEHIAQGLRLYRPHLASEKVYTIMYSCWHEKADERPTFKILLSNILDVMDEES
T3 sequence (Q06187 whole entry): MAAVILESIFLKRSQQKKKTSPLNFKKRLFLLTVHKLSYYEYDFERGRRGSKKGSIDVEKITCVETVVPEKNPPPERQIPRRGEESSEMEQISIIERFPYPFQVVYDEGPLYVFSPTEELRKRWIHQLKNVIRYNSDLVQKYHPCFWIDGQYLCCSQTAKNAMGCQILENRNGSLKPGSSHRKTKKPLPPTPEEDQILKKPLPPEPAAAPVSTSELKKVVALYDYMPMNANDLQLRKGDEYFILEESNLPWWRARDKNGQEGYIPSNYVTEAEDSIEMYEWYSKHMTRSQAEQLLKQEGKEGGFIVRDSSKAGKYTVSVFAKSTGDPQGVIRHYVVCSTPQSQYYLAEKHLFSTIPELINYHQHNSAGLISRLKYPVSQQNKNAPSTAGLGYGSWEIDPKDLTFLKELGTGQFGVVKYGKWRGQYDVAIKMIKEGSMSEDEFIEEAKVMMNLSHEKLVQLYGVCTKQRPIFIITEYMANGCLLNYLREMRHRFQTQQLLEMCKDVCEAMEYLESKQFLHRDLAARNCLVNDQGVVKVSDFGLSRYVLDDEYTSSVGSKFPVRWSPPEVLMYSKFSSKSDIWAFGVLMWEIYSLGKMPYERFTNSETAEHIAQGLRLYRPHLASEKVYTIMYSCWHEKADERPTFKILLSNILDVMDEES
T2 sequence (Q06187 whole entry): as above

IC50 [1] [nM] | CYP3A4 Ind. fold [2] [fold] | IC50 [3] [nM] | EC50 [4] [nM] | SMILES
38.6 |  |  |  | CCO/C=C/C(=O)N1CCN([C@@H]2CCNc3c2nn(-c2ccc(Oc4ccccc4)cc2)c3C(N)=O)CC1 [Example 50, (7R)-7-{4-[(2E)-3-ethoxyprop-2-enoyl]piperazin-1-yl}-2-(4-phenoxyphenyl)-4,5,6,7-tetrahydro-2H-pyrazolo[4,3-b]pyridine-3-carboxamide]
507 |  |  |  | COC(=O)/C=C/C(=O)N1CCN(C2CCNc3c2nn(-c2ccc(Oc4ccccc4)cc2)c3C(N)=O)CC1 (centres unmarked) [Example 51, methyl (2E)-4-{4-[3-carbamoyl-2-(4-phenoxyphenyl)-4,5,6,7-tetrahydro-2H-pyrazolo[4,3-b]pyridin-7-yl]piperazin-1-yl}-4-oxobut-2-enoate]
 | 1.58 | 77.5 |  | C=CC(=O)N1CCN([C@@H]2CCNc3c2nn(-c2ccc(Oc4cc(F)cc(F)c4)cc2)c3C(N)=O)CC1 [Example 58, (7R)-2-[4-(3,5-difluorophenoxy)phenyl]-7-[4-(prop-2-enoyl)piperazin-1-yl]-4,5,6,7-tetrahydro-2H-pyrazolo[4,3-b]pyridine-3-carboxamide]
 | 0.85 | 2.17 | 117 | C=CC(=O)N1CCN([C@H]2CCNc3c2nn(-c2ccc(Oc4cc(F)cc(F)c4)cc2)c3C(N)=O)CC1 [Example 59, (7S)-2-[4-(3,5-difluorophenoxy)phenyl]-7-[4-(prop-2-enoyl)piperazin-1-yl]-4,5,6,7-tetrahydro-2H-pyrazolo[4,3-b]pyridine-3-carboxamide]
6.2 |  |  | 7.75 | C=CC(=O)N1CC(N2CCNc3c2nn(-c2ccc(Oc4cccc(F)c4)cc2)c3C(N)=O)C1 [Example 62, 2-[4-(3-fluorophenoxy)phenyl]-7-[1-(prop-2-enoyl)azetidin-3-yl]-4,5,6,7-tetrahydro-2H-pyrazolo[3,4-b]pyrazine-3-carboxamide]
20.3 |  |  | 19.4 | C=CC(=O)N1CC(N2CCNc3c2nn(-c2ccc(Oc4ccc(F)c(F)c4)cc2)c3C(N)=O)C1 [Example 63, 2-[4-(3,4-difluorophenoxy)phenyl]-7-[1-(prop-2-enoyl)azetidin-3-yl]-4,5,6,7-tetrahydro-2H-pyrazolo[3,4-b]pyrazine-3-carboxamide]
